In patent publication US20080299140A1, “Immunogenic Composition and Peptide Sequences for Prevention and Treatment of an Hsv Condition” (priority 2002, published 2008):
Substitutions are numbered along the chain they refer to. Like-named read-outs stand apart in the source and are kept apart here.

What was measured:
[1] = molecular target: T1, DR1=HLA-DR(α1*0101,α1*0101) (Homo sapiens, UniProt P01903+P01911, A100R/D57E/F55L/F60I/F76Y/I96L/L162R/M171V/P40L/Q125E/R42F/V115G/Y59C); test: biochemical; assay type: binding; settings: Table V; […]; read-out: IC50 DR1
T1 construct: endogenous in cells; host or cells: EBV homozygous human B cell line

[2] = molecular target: T2, DR3=HLA-DR(α1*0101,α1*0301) (Homo sapiens, UniProt P01903+P01911, A100K/A102G/A103R/A169T/F55Y/I96L/K41T/L162R/M171V/P40S/Q125H/Q178H/Q39Y/R42S/S66N/T106N/T262R/W38E/Y61H); test: HLA-DR specific binding assay, DR3; settings: IC50 DR3, Table V; […]
T2 construct: endogenous in cells; host or cells: STEILIN (EBV homozygous B cell line)

[3] = molecular target: T3, DR4=HLA-DR(α1*0101,α1*0401) (Homo sapiens, UniProt P01903+P01911, A100K/A169T/F76Y/I96L/K127E/L162R/M171V/N62H/P40V/Q125Y/R42H/S133A/S149N/S66Y/V115G/V209L/W38E); test: biochemical; assay type: binding
T3 construct: endogenous in cells; host or cells: BOLETH (EBV homozygous B cell line)

[4] = molecular target: T4, DR7=HLA-DR(α1*0101,α1*0701) (Homo sapiens, UniProt P01903+P01911, A100R/A102G/A103Q/D57E/D86V/E43K/F76Y/K127E/L162R/M171V/P40G/Q125H/Q99D/R33Q/R42Y/R54Q/S133A/S66F/T210M/V115G/Y107V/Y59L/Y89S); test: HLA-DR specific binding assay, DR7
T4 construct: endogenous in cells; host or cells: EBV homozygous human B cell line

[5] = molecular target: T5, DR11=HLA-DR(α1*0101,α1*1101) (Homo sapiens, UniProt P01903+P01911, A100R/A169T/A87E/I96F/K41T/L162R/M171V/P40S/Q125H/Q178H/Q39Y/Q99D/R42S/S66Y/T262R/V115G/W38E); test: biochemical; assay type: binding
T5 construct: endogenous in cells; host or cells: SWEIG (EBV homozygous B cell line)

[6] = molecular target: T6, DR13=HLA-DR(α1*0101,α1*1301) (Homo sapiens, UniProt P01903+P01911, A100E/A169T/K41T/L162R/M171V/P40S/Q125H/Q178H/Q39Y/Q99D/R42S/S66N/T262R/W38E/Y61H); test: HLA-DR specific binding assay, DR13
T6 construct: endogenous in cells; host or cells: 0206AD (EBV homozygous B cell line)

[7] = molecular target: T7, DR15=HLA-DR(α1*0101,α1*1501) (Homo sapiens, UniProt P01903+P01911); test: HLA-DR specific binding assay, DR15
T7 construct: endogenous in cells; host or cells: EBV homozygous human B cell line

[8] = molecular target: T8, DRB3=HLA-DR(α1*0101,α3*0101) (Homo sapiens, UniProt P01903+P79483); test: HLA-DR specific binding assay, DRB3 (DR52)
T8 construct: endogenous in cells; host or cells: STEILIN or 0206AD (both typed DRB3*0101)

[9] = molecular target: T9, DRB4=HLA-DR(α1*0101,α4*0101) (Homo sapiens, UniProt P01903+P13762, G164S); test: HLA-DR specific binding assay, DRB4 (DR53)
T9 construct: endogenous in cells

[10] = molecular target: T10, DRB5=HLA-DR(α1*0101,α5*0101) (Homo sapiens, UniProt P01903+Q30154); test: biochemical; assay type: binding; settings: Table V; […]; read-out: IC50 DRB5
T10 construct: endogenous in cells; host or cells: EBV homozygous human B cell line

[11] = molecular target: T11, DP401=HLA-DP(α1*0101,α1*0401) (Homo sapiens, UniProt P04440+P20036); test: biochemical; assay type: binding; settings: Table V; […]
T11 sequence (P20036 32-260 limits assumed): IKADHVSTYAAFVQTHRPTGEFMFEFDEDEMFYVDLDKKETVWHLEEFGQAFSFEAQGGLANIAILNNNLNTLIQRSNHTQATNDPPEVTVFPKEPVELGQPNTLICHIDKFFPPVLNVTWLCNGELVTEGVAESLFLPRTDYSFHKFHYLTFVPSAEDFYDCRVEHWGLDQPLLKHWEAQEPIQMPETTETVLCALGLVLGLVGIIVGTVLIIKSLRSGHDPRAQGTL
T11 sequence (P04440 30-258): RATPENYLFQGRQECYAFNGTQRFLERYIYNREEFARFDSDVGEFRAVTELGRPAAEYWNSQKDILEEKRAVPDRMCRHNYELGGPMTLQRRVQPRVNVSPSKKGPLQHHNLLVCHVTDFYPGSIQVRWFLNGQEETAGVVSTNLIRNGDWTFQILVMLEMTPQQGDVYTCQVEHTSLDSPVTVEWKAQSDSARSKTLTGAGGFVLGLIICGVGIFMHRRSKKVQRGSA

[12] = molecular target: T12, DP402 DP (α1*0101, α1*0402) (Homo sapiens, UniProt P04440+P20036, A65V/A84D/A85E/L207M); test: biochemical; assay type: binding
T12 sequence (P20036 29-260): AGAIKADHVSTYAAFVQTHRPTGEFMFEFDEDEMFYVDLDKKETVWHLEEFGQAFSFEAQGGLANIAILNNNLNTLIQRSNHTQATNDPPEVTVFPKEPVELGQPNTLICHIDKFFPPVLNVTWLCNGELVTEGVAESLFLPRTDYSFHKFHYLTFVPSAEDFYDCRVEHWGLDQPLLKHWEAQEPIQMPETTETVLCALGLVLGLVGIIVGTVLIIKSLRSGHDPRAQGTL
T12 sequence (P04440 30-258 A65V/A84D/A85E): T11 sequence (P04440 30-258) with A36V, A55D, A56E

[13] = Table V, […], read-out: IC50 DR11

T8 sequence (P79483 30-266, other chains not shown): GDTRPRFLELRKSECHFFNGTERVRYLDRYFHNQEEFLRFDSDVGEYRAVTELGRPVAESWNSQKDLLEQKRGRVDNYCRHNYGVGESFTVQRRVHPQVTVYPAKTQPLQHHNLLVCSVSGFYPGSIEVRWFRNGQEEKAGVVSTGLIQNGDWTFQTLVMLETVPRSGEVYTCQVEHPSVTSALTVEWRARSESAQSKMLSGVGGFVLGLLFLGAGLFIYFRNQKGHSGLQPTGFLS
T10 sequence (Q30154 30-266, other chains not shown): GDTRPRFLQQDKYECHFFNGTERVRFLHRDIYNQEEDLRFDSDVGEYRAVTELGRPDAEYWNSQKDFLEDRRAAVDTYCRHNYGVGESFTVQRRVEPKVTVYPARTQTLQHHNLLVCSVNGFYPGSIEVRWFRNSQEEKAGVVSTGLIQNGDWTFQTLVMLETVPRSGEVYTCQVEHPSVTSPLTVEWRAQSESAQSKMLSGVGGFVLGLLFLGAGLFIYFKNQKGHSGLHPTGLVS

SMILES	IC50 [1]	IC50 [2]	IC50 ([3]; Table V, […], read-out: IC50 DR4)	IC50 [4]	IC50 [5, 13]	IC50 [6]	IC50 [7]	IC50 ([8]; IC50 DRB3, Table V, […])	IC50 [9]	IC50 [10]	IC50 [11]	IC50 ([12]; Class II MHC allele DP402)	IC50 ([12]; Table V, […])	IC50 ([3]; IC50 DR4)	IC50 ([8]; IC50, DRD3, Class II MHC allele DRD3 (so in the source))	IC50 ([5]; Class II MHC allele DR11, read-out: IC50, DR11)
CSCC[C@H](NC(=O)[C@H](CC(=O)O)NC(=O)[C@@H](NC(=O)[C@@H](NC(=O)[C@H](CCCCN)NC(=O)[C@H](C)NC(=O)[C@H](CO)NC(=O)[C@H](CC(C)C)NC(=O)[C@H](CC(C)C)NC(=O)[C@H](C)NC(=O)[C@H](CO)NC(=O)[C@@H](NC(=O)CN)[C@@H](C)O)C(C)C)[C@@H](C)O)C(=O)N[C@H](C(=O)N[C@@H](CCSC)C(=O)N[C@@H](CCCNC(=N)N)C(=O)N[C@@H](CCCCN)C(=O)N[C@@H](CCCNC(=N)N)C(=O)N[C@@H](CCCNC(=N)N)C(=O)N[C@@H](CC(N)=O)C(=O)N[C@H](C(=O)N[C@@H](CC(N)=O)C(=O)N[C@@H](Cc1ccc(O)cc1)C(=O)N[C@H](C(=O)N[C@@H](CCC(N)=O)C(=O)N[C@H](C(=O)N1CCC[C@H]1C(=O)N[C@@H](CC(N)=O)C(=O)N[C@@H](CCCCN)C(=O)N[C@@H](CC(=O)O)C(=O)NCC(=O)N[C@@H](CC(=O)O)C(=O)N[C@@H](C)C(=O)N[C@@H](CC(=O)O)C(=O)O)C(C)C)[C@@H](C)O)[C@@H](C)O)C(C)C [HSV 9]	493 nM	11400 nM	4000 nM	229 nM	424 nM	362 nM	2430 nM	58000 nM	16000 nM	559 nM	8000 nM	4000 nM	4000 nM			
CC[C@H](C)[C@H](NC(=O)[C@H](Cc1c[nH]cn1)NC(=O)[C@H](Cc1ccc(O)cc1)NC(=O)[C@@H](NC(=O)[C@H](CCCNC(=N)N)NC(=O)[C@H](CCCNC(=N)N)NC(=O)[C@@H](NC(=O)CNC(=O)[C@@H]1CCCN1C(=O)[C@@H]1CCCN1C(=O)[C@H](CC(=O)O)NC(=O)[C@@H](NC(=O)[C@H](CC(C)C)NC(=O)[C@H](CCC(N)=O)NC(=O)[C@H](CC(=O)O)NC(=O)[C@H](CC(C)C)NC(=O)[C@@H](NC(=O)[C@@H]1CCCN1C(=O)[C@H](CC(C)C)NC(=O)[C@@H](N)CC(=O)O)C(C)C)[C@@H](C)O)C(C)C)C(C)C)C(=O)N[C@@H](CCC(N)=O)C(=O)N[C@@H](C)C(=O)NCC(=O)N[C@@H](CC(C)C)C(=O)N1CCC[C@H]1C(=O)N[C@@H](CC(=O)O)C(=O)N1CCC[C@H]1C(=O)N[C@@H](Cc1ccccc1)C(=O)N[C@@H](CCC(N)=O)C(=O)N1CCC[C@H]1C(=O)N1CCC[C@H]1C(=O)N[C@@H](CO)C(=O)O [HSV 31]	3 nM	2490 nM		224 nM		> 100000 nM	787 nM	5980 nM	397 nM	58 nM	62000 nM	49000 nM	47000 nM	63 nM	6980 nM	
CC[C@H](C)[C@H](NC(=O)[C@H](CCC(N)=O)NC(=O)[C@@H]1CCCN1C(=O)[C@H](C)N)C(=O)N[C@H](C(=O)N[C@@H](CCCNC(=N)N)C(=O)NCC(=O)N[C@@H](C)C(=O)N[C@@H](CO)C(=O)N[C@@H](CCC(=O)O)C(=O)N[C@@H](CC(=O)O)C(=O)N[C@H](C(=O)N[C@@H](CCCNC(=N)N)C(=O)N[C@@H](CCCCN)C(=O)N[C@@H](CCC(N)=O)C(=O)N1CCC[C@H]1C(=O)N[C@@H](Cc1ccc(O)cc1)C(=O)N[C@@H](CC(N)=O)C(=O)N[C@@H](CC(C)C)C(=O)N[C@H](C(=O)N[C@H](C(=O)N[C@@H](C)C(=O)N[C@@H](Cc1c[nH]c2ccccc12)C(=O)N[C@@H](Cc1ccccc1)C(=O)N[C@@H](CCCNC(=N)N)C(=O)N[C@@H](CCSC)C(=O)NCC(=O)NCC(=O)O)[C@@H](C)CC)[C@@H](C)O)C(C)C)C(C)C [HSV 32]		2350 nM		4 nM	300 nM			> 100000 nM		1 nM	1450 nM		381 nM			300 nM
